Results from patent publication US20250296942A1, “Phosphonate-Based Coordination Complexes and Methods of Preparation and Use Thereof” (University of Puerto Rico, priority 2021, published 2025).
Several values for one entry are separate records, joined by “and”; a condition that tells them apart may be missing. Equal entries are not always repeated.

Assay: Hydroxyapatite (HA) binding assay of RISE and nano-Ca@RISE
Description: Hydroxyapatite (HA) binding assay. For the binding assay of nano-Ca@RISE, 20 mg of hydroxyapatite (HA) were exposed to 3 mL of a nano-Ca@RISE in PBS solution (0.5 mg/mL), for 0-11 days at 37° C. As control groups, RISE and HA, both in PBS, were employed. Samples were collected each day from 11 consecutive days. After each time point, the supernatant was collected and centrifuged (1,500 rpm, 8 min). […]
The capacity of nano-Ca@RISE to bind to the main constituent of the bone microenvironment, HA, under simulated physiological conditions, was evaluated through a binding assay. […]. […] […]. Therefore, a calibration curve of nano-Ca@RISE in PBS was employed for quantification of the nanocrystal's concentration in the supernatant after the binding assay.
For the nano-Ca@RISE binding assay, 20 mg of hydroxyapatite (HA), were added to 3.00 mL of nano-Ca@RISE (0.5 mg/mL) in PBS solution. HA in PBS mixture, and the binding of RISE to HA, were used as control groups. The samples were left for 0-11 days at 37° C. and 300 rpm. As a comparative method, additional binding assay for RISE “as received” was conducted employing the same parameters as for the nanocrystals. The selected time points were: 1, 2, 3, 4, 5, 7, 8, 9, 10, and 11 days. The supernatant was collected after each time point, then centrifuged (1,500 rpm, 8 min), and absorbance measurements were performed at 206 nm to determine the binding percentage of RISE from the nano-Ca@RISE to HA. FIGS. S8.6.1 and S8.6.2 illustrate the binding curves of RISE and nano-Ca@RISE to HA in PBS.

SMILES: O=P(O)(O)C(O)(Cc1cccnc1)P(=O)(O)O [RISE, Monosodium risedronate hemipentahydrate]
- time to reach maximum binding to HA (PBS): 8 days
- maximum binding to HA (PBS pH 7.40, 37 °C, 0-11 days): 76%
- bound to HA (PBS pH 7.40, 37 °C, 1 day): 18% and 17%
